According to US8324245B2, “Quinoline derivative and quinazoline derivative inhibiting self-phosphorylation of hepatocytus proliferator receptor, and medicinal composition containing the same” (Kyowa Hakko Kirin Co., Ltd., priority 2001, dated 2012):

Biological target: T1, met (HGF receptor) in human gastric cancer cells MKN45 (Homo sapiens, UniProt P08581)
T1 construct: endogenous in cells; host or cells: MKN45 human gastric cancer cells
Experiment: Inhibitory activity against met-autophosphorylation using ELISA method (2), MKN45 cells, HGF-independent
Format: cell-based
Summary of the method: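 Met autophosphorylation was read by sandwich ELISA: phosphotyrosine capture (PY20), anti-HGF receptor detection, peroxidase read-out at 450 nm. Lysates came from MKN45 gastric cancer cells kept in 0.1% FCS RPMI and treated 1 h at 37 °C with test compound, with no added HGF.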

T1 sequence (P08581 25-1390): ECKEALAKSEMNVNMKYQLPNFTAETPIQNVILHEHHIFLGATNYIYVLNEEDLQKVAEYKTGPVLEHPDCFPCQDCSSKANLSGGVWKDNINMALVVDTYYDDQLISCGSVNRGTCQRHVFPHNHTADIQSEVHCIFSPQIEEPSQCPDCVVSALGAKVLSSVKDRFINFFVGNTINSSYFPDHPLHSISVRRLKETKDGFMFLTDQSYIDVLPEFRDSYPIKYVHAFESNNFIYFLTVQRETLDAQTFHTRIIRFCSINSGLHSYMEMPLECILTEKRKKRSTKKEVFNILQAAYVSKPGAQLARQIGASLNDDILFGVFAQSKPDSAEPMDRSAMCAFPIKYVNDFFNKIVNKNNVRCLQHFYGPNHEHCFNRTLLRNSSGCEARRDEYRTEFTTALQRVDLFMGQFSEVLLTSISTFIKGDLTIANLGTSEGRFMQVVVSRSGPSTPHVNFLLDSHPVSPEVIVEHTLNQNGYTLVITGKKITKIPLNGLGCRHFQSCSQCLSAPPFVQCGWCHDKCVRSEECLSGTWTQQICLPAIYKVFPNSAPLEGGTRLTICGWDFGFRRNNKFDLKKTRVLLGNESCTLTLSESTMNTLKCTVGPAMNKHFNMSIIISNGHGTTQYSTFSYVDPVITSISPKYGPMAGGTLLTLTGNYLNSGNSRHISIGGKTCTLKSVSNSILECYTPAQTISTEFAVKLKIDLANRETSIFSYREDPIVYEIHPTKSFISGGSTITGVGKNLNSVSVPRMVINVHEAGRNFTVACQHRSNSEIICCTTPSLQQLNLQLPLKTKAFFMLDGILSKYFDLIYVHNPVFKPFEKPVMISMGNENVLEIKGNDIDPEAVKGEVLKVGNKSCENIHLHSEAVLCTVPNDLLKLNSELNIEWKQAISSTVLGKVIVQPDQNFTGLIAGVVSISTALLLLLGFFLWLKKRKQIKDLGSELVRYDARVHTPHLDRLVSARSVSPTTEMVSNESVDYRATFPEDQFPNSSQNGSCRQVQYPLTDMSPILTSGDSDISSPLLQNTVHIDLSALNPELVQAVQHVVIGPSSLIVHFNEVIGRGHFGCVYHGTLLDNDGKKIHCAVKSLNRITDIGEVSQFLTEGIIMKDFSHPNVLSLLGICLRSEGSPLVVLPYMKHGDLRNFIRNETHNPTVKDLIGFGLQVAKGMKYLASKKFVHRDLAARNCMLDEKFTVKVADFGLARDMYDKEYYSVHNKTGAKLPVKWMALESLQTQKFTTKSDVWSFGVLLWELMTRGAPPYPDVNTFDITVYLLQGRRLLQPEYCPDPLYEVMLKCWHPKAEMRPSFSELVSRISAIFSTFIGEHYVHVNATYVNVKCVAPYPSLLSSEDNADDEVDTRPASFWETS

| Structure (SMILES) | IC50 [nM] |
| --- | --- |
| COc1cc2nccc(Oc3ccc(NC(=O)NC(=O)Nc4ccc(Cl)cc4C)cc3)c2cc1OC [Example 242, N-(4-chloro-2-methylphenyl)-({[4-(6,7-dimethoxyquinolin-4-yloxy)anilino]carbonyl}amino)-methanamide] | 851 |
| COc1cc2nccc(Oc3ccc(NC(=O)NC(=O)Nc4ccc5c(c4)CCC5)cc3)c2cc1OC [Example 243, N-(2,3-dihydro-1H-5-indenyl)-({[4-(6,7-dimethoxyquinolin-4-yloxy)anilino]carbonyl}amino)-methanamide] | 3010 |
| COc1cccc(NC(=O)NC(=O)Nc2ccc(Oc3ccnc4cc(OC)c(OC)cc34)cc2)c1 [Example 244, N-(3-methoxyphenyl)-({[4-(6,7-dimethoxy-quinolin-4-yloxy)anilino]carbonyl}amino)methanamide] | 342 |
| COC(=O)c1ccccc1NC(=O)NC(=O)Nc1ccc(Oc2ccnc3cc(OC)c(OC)cc23)cc1 [Example 245, methyl 2-({({[4-(6,7-dimethoxyquinolin-4-yloxy)anilino]carbonyl}amino)carbonyl}amino)benzoate] | 308 |
| COc1cc2nccc(Oc3ccc(NC(=O)NC(=O)Nc4ccccc4Cc4ccccc4)cc3)c2cc1OC [Example 246, N-(2-benzylphenyl)-({[4-(6,7-dimethoxy-quinolin-4-yloxy)anilino]carbonyl}amino)methanamide] | 2910 |
| COc1cc2nccc(Oc3ccc(NC(=O)NC(=O)Nc4ccccc4Br)cc3)c2cc1OC [Example 247, N-(2-bromophenyl)-({[4-(6,7-dimethoxy-quinolin-4-yloxy)anilino]carbonyl}amino)methanamide] | 650 |
| COc1cc2nccc(Oc3ccc(NC(=O)NC(=O)Nc4ccccc4Cl)cc3)c2cc1OC [Example 248, N-(2-chlorophenyl)-({[4-(6,7-dimethoxy-quinolin-4-yloxy)anilino]carbonyl}amino)methanamide] | 957 |
| COc1cc2nccc(Oc3ccc(NC(=O)NC(=O)Nc4ccc(Cl)cc4)cc3)c2cc1OC [Example 249, N-(4-chlorophenyl)-({[4-(6,7-dimethoxy-quinolin-4-yloxy)anilino]carbonyl}amino)methanamide] | 526 |
| COc1cc2nccc(Oc3ccc(NC(=O)NC(=O)Nc4ccc(F)cc4Cl)cc3)c2cc1OC [Example 250, N-(2-chloro-4-fluorophenyl)-({[4-(6,7-dimethoxyquinolin-4-yloxy)anilino]carbonyl}amino)-methanamide] | 447 |
| COc1cc2nccc(Oc3ccc(NC(=O)NC(=O)Nc4cccc(F)c4)cc3)c2cc1OC [Example 251, N-(3-fluorophenyl)-({[4-(6,7-dimethoxy-quinolin-4-yloxy)anilino]carbonyl}amino)methanamide] | 386 |
| COc1cc2nccc(Oc3ccc(NC(=O)NC(=O)Nc4ccccc4F)cc3)c2cc1OC [Example 252, N-(2-fluorophenyl)-({[4-(6,7-dimethoxy-quinolin-4-yloxy)anilino]carbonyl}amino)methanamide] | 301 |
| COc1cc2nccc(Oc3ccc(NC(=O)NC(=O)Nc4ccccc4SC)cc3)c2cc1OC [Example 253, N-[2-(methylsulfanyl)phenyl]-({[4-(6,7-dimethoxyquinolin-4-yloxy)anilino]carbonyl}amino)-methanamide] | 1340 |
| COc1cc2nccc(Oc3ccc(NC(=O)NC(=O)Nc4ccc([N+](=O)[O-])cc4)cc3)c2cc1OC [Example 254, N-(4-nitrophenyl)-({[4-(6,7-dimethoxy-quinolin-4-yloxy)anilino]carbonyl}amino)methanamide] | 365 |
| COc1cc2nccc(Oc3ccc(NC(=O)NC(=O)Nc4ccccc4Oc4ccccc4)cc3)c2cc1OC [Example 255, N-(2-phenoxyphenyl)-({[4-(6,7-dimethoxy-quinolin-4-yloxy)anilino]carbonyl}amino)methanamide] | 260 |
| COc1cc2nccc(Oc3ccc(NC(=O)NC(=O)Nc4cccc(C)c4)cc3)c2cc1OC [Example 256, N-(3-methylphenyl)-({[4-(6,7-dimethoxy-quinolin-4-yloxy)anilino]carbonyl}amino)methanamide] | 281 |
| COc1cc2nccc(Oc3ccc(NC(=O)NC(=O)Nc4ccc(C)cc4)cc3)c2cc1OC [Example 257, N-(4-methylphenyl)-({[4-(6,7-dimethoxy-quinolin-4-yloxy)anilino]carbonyl}amino)methanamide] | 286 |
| COc1cc2nccc(Oc3ccc(NC(=O)NC(=O)Nc4c(C)cccc4C)cc3)c2cc1OC [Example 258, N-(2,6-dimethylphenyl)-({[4-(6,7-dimethoxy-quinolin-4-yloxy)anilino]carbonyl}amino)methanamide] | 357 |
| COc1cc2nccc(Oc3ccc(NC(=O)NC(=O)Nc4ccccc4-n4cccc4)cc3)c2cc1OC [Example 259, N-[2-(1H-1-pyrrolyl)phenyl]-({[4-(6,7-dimethoxyquinolin-4-yloxy)anilino]carbonyl}amino)-methanamide] | 614 |

| Structure (SMILES) | IC50 [nM] |
| --- | --- |
| COc1cc2nccc(Oc3ccc(NC(=O)NC(=O)Nc4cccc5cccnc45)cc3)c2cc1OC [Example 260, N-(8-quinolyl)-({[4-(6,7-dimethoxyquinolin-4-yloxy)anilino]carbonyl}amino)methanamide] | 2230 |
| COc1cc2nccc(Oc3ccc(NC(=O)NC(=O)Nc4cccc(C(C)=O)c4)cc3)c2cc1OC [Example 261, N-(3-acetylphenyl)-({[4-(6,7-dimethoxy-quinolin-4-yloxy)anilino]carbonyl}amino)-methanamide] | 343 |
| COc1cc2nccc(Oc3ccc(NC(=O)NC(=O)Nc4cccc5ncccc45)cc3)c2cc1OC [Example 262, N-(5-quinolyl)-({[4-(6,7-dimethoxyquinolin-4-yloxy)anilino]carbonyl}amino)methanamide] | 269 |
| COc1cc2nccc(Oc3ccc(NC(=O)NC(=O)Nc4c(Cl)cccc4Cl)cc3)c2cc1OC [Example 263, N-(2,6-dichlorophenyl)-({[4-(6,7-dimethoxy-quinolin-4-yloxy)anilino]carbonyl}amino)methanamide] | 483 |
| COc1cc2nccc(Oc3ccc(NC(=O)NC(=O)Nc4ccc(F)c(F)c4)cc3)c2cc1OC [Example 264, N-(3,4-difluorophenyl)-({[4-(6,7-dimethoxy-quinolin-4-yloxy)anilino]carbonyl}amino)methanamide] | 347 |
| COc1cc2nccc(Oc3ccc(NC(=O)NC(=O)Nc4c(F)cccc4F)cc3)c2cc1OC [Example 265, N-(2,6-difluorophenyl)-({[4-(6,7-dimethoxy-quinolin-4-yloxy)anilino]carbonyl}amino)methanamide] | 259 |
| COc1ccccc1NC(=O)NC(=O)Nc1ccc(Oc2ccnc3cc(OC)c(OC)cc23)cc1 [Example 266, N-(2-methoxyphenyl)-({[4-(6,7-dimethoxy-quinolin-4-yloxy)anilino]carbonyl}amino)methanamide] | 181 |
| COc1cc2nccc(Oc3ccc(NC(=O)NC(=O)Nc4ccccc4CCO)cc3)c2cc1OC [Example 267, N-[2-(2-hydroxyethyl)phenyl]-({[4-(6,7-dimethoxyquinolin-4-yloxy)anilino]carbonyl}amino)-methanamide] | 109 |
| COc1cc2c(Oc3ccc(NC(=O)CC(=O)Nc4ccc(F)cc4)cc3F)ccnc2cc1OCCCN1CCOCC1 [Example 269, N-{3-fluoro-4-[6-methoxy-7-(3-morpholin-4-yl-propoxy)quinolin-4-yloxy]phenyl}-N′-(4-fluorophenyl)-malonamide] | 12.5 |
| COc1cc2c(Oc3ccc(NC(=S)NC(=O)Cc4ccccc4)cc3F)ccnc2cc1OCCN1CCN(C)CC1 [Example 270, 1-(3-Fluoro-4-{6-methoxy-7-[2-(4-methyl-piperazin-1-yl)-ethoxy]-quinolin-4-yloxy}-phenyl)-3-phenylacetyl-thiourea] | 26.7 |
| CCN(CC)CCOc1cc2nccc(Oc3ccc(NC(=S)NC(=O)Cc4ccccc4)cc3F)c2cc1OC [Example 272, 1-{4-[7-(2-Diethylamine-ethoxy)-6-methoxy-quinolin-4-yloxy]-3-fluoro-phenyl}-3-phenylacetyl-thiourea] | 33.6 |
| COc1cc2c(Oc3ccc(NC(=S)NC(=O)Cc4ccccc4)cc3F)ccnc2cc1OCCN1CCCN(C)CC1 [Example 273, 1-(3-Fluoro-4-{6-methoxy-7-[2-(4-methyl-[1,4]diazepan-1-yl)-ethoxy]-3-quinolin-4-yloxy}-phenyl)-3-phenylacetyl-thiourea] | 24 |
| CCN(CC)CCOc1cc2nccc(Oc3ccc(NC(=S)NC(=O)Cc4ccc(F)cc4)cc3F)c2cc1OC [Example 275, 1-{4-[7-(2-Diethylamino-ethoxy)-6-methoxy-quinolin-4-yloxy]-3-fluoro-phenyl}-3-[2-(4-fluoro-phenyl)-acetyl]-thiourea] | 23 |
| COc1cc2c(Oc3ccc(NC(=S)NC(=O)Cc4ccccc4)cc3F)ccnc2cc1OCCN1CCOCC1 [Example 276] | 19 |
| COc1cc2c(Oc3ccc(NC(=S)NC(=O)Cc4ccccc4F)cc3F)ccnc2cc1OCCN1CCOCC1 [Example 278, 1-{3-Fluoro-4-[6-methoxy-7-(2-morpholin-4-yl-ethoxy)-quinolin-4-yloxy]-phenyl}-3-[2-(2-fluoro-phenyl)-acetyl]-thiourea] | 25.1 |
| COc1cc2c(Oc3ccc(NC(=S)NC(=O)Cc4cccc(F)c4)cc3F)ccnc2cc1OCCN1CCOCC1 [Example 279, 1-{3-Fluoro-4-[6-methoxy-7-(2-morpholin-4-yl-ethoxy)-quinolin-4-yloxy]-phenyl}-3-[2-(3-fluoro-phenyl)-acetyl]-thiourea] | 20.4 |
| COc1cc2c(Oc3ccc(NC(=O)NC(=O)Cc4ccccc4)cc3F)ccnc2cc1OCCN1CCC(CO)CC1 [Example 283] | 14.6 |
| COc1cc2c(Oc3ccc(NC(=S)NC(=O)Cc4ccccc4)cc3F)ccnc2cc1OCCN1CCC(CO)CC1 [Example 284, 1-(3-Fluoro-4-{7-[2-(4-hydroxymethyl-piperidin-1-yl)-ethoxy]-6-methoxy-quinolin-4-yloxy}-phenyl)-3-phenylacetyl-thiourea] | 15 |
